Where “and” joins values, the source holds several entries; their conditions need not be identical. Identical values can stand only once. Inconclusive results and toxic doses are left out. Rule as the data show it: active = T/C of 150% or more; inactive = T/C below 125%.
System: L1210 leukemia ip in BDF1 mice, survival T/C
Assay: NCI In Vivo Anticancer Drug Screen. Data for tumor model L1210 Leukemia (intraperitoneal) in B6D2F1 (BDF1) mice
Conditions: endpoint: mean survival time, higher = longer survival
Procedure, shortened: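 Tumor cells were implanted, animals were treated, and survival was followed. The result divides the treated measurement by the vehicle-control measurement.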

[1] = dose: 100.0 mg/kg/injection, schedule: Q04DX002 (ip), vehicle: Klucel (hydroxypropylcellulose) (HPC)
[2] = dose: 200.0 mg/kg/injection, schedule: Q04DX002 (ip), vehicle: Klucel (hydroxypropylcellulose) (HPC)
[3] = dose: 400.0 mg/kg/injection, schedule: Q04DX002 (ip), vehicle: Klucel (hydroxypropylcellulose) (HPC)
[4] = dose: 50.0 mg/kg/injection, schedule: Q01DX009 (ip), vehicle: Klucel (hydroxypropylcellulose) (HPC)
[5] = dose: 100.0 mg/kg/injection, schedule: Q01DX009 (ip), vehicle: Klucel (hydroxypropylcellulose) (HPC)
[6] = dose: 200.0 mg/kg/injection, schedule: Q01DX009 (ip), vehicle: Klucel (hydroxypropylcellulose) (HPC)
[7] = dose: 100.0 mg/kg/injection, schedule: Q01DX009 (ip), vehicle: saline with Tween-80
[8] = dose: 100.0 mg/kg/injection, schedule: Q04DX003 (ip), vehicle: saline with Tween-80
[9] = dose: 200.0 mg/kg/injection, schedule: Q01DX009 (ip), vehicle: saline with Tween-80
[10] = dose: 200.0 mg/kg/injection, schedule: Q04DX003 (ip), vehicle: saline with Tween-80
[11] = dose: 400.0 mg/kg/injection, schedule: Q01DX009 (ip), vehicle: saline with Tween-80
[12] = dose: 400.0 mg/kg/injection, schedule: Q04DX003 (ip), vehicle: saline with Tween-80
[13] = dose: 12.5 mg/kg/injection, schedule: Q01DX009 (ip), vehicle: saline
[14] = dose: 25.0 mg/kg/injection, schedule: Q01DX009 (ip), vehicle: saline
[15] = dose: 400.0 mg/kg/injection, schedule: Q01DX009 (ip), vehicle: Klucel (hydroxypropylcellulose) (HPC)
[16] = dose: 50.0 mg/kg/injection, schedule: Q01DX001 (ip), vehicle: saline
[17] = dose: 100.0 mg/kg/injection, schedule: Q01DX001 (ip), vehicle: saline
[18] = dose: 200.0 mg/kg/injection, schedule: Q01DX001 (ip), vehicle: saline
[19] = dose: 400.0 mg/kg/injection, schedule: Q01DX001 (ip), vehicle: saline
[20] = dose: 25.0 mg/kg/injection, schedule: Q01DX009 (ip), vehicle: Klucel (hydroxypropylcellulose) (HPC)
[21] = dose: 100.0 mg/kg/injection, schedule: Q04DX003 (ip), vehicle: Klucel (hydroxypropylcellulose) (HPC)
[22] = dose: 200.0 mg/kg/injection, schedule: Q04DX003 (ip), vehicle: Klucel (hydroxypropylcellulose) (HPC)
[23] = dose: 400.0 mg/kg/injection, schedule: Q04DX003 (ip), vehicle: Klucel (hydroxypropylcellulose) (HPC)

Measured: T/C

CCOC(=O)C1C(=O)CC(=O)C(C(=O)OCC)C1c1cc(OC)c(OC)c(OC)c1 (stereo not drawn)
inactive: [1] 91 % of control | [2] 91 % of control | [3] 94 % of control

CSc1nccnc1C
inactive: [4] 119 % of control | [5] 96 % of control | [6] 105 % of control

Nc1nccc2c1ncn2C1OC(CO)C(O)C1O (stereo not drawn)
inactive: dose: 100.0 mg/kg/injection, schedule: Q01DX005 (ip), vehicle: saline 108 % of control | dose: 200.0 mg/kg/injection, schedule: Q01DX005 (ip), vehicle: saline 109 % of control

CC(=O)N/N=C(/C)C(O)(c1ccccc1)c1ccccc1
inactive: [7] 95 % of control | [8] 100 % of control | [9] 92 % of control | [10] 101 % of control | [11] 97 % of control | [12] 101 % of control

C1CC2CCCN2C1
inactive: [13] 93 % of control | [14] 93 % of control | dose: 50.0 mg/kg/injection, schedule: Q01DX009 (ip), vehicle: saline 95 % of control

CNC(=O)Oc1cc(OC)ccc1C(=O)c1ccccc1
inactive: [5] 94 % of control | [6] 96 % of control | [15] 97 % of control

O=CNc1ncn[nH]1
inactive: [16] 98 % of control | [17] 98 % of control | [18] 104 % of control | [19] 104 % of control

O=[N+]([O-])CC(NNC(C[N+](=O)[O-])C(Cl)(Cl)Cl)C(Cl)(Cl)Cl (stereo not drawn)
inactive: [7] 96 % of control | [8] 89 % of control | [9] 91 % of control | [10] 94 % of control | [12] 90 % of control

COC1/C=C/OC2(C)Oc3c(C)c(O)c4c(O)c(c(/C=N/N5CCN(Cc6ccccc6)CC5)c(O)c4c3C2=O)NC(=O)C(C)=C/C=C/C(C)C(O)C(C)C(O)C(C)C(OC(C)=O)C1C (stereo not drawn)
inactive: dose: 3.13 mg/kg/injection, schedule: Q01DX009 (ip), vehicle: Klucel (hydroxypropylcellulose) (HPC) 91 % of control | dose: 6.25 mg/kg/injection, schedule: Q01DX009 (ip), vehicle: Klucel (hydroxypropylcellulose) (HPC) 100 % of control | dose: 12.5 mg/kg/injection, schedule: Q01DX009 (ip), vehicle: Klucel (hydroxypropylcellulose) (HPC) 91 % of control | [20] 97 % of control | [4] 95 % of control and 110 % of control

CCOC(=O)C1=CC(=O)C(C(=O)OCC)=CC1=O
inactive: dose: 100.0 mg/kg/injection, schedule: Q01DX001 (ip), vehicle: carboxymethylcellulose (CMC) 98 % of control | dose: 200.0 mg/kg/injection, schedule: Q01DX001 (ip), vehicle: carboxymethylcellulose (CMC) 98 % of control | dose: 400.0 mg/kg/injection, schedule: Q01DX001 (ip), vehicle: carboxymethylcellulose (CMC) 104 % of control

CC(=O)NCC1CCCCC1
inactive: [20] 98 % of control | dose: 25.0 mg/kg/injection, schedule: Q04DX003 (ip), vehicle: Klucel (hydroxypropylcellulose) (HPC) 100 % of control | [4] 92 % of control | dose: 50.0 mg/kg/injection, schedule: Q04DX003 (ip), vehicle: Klucel (hydroxypropylcellulose) (HPC) 102 % of control | [5] 110 % of control | [21] 105 % of control

CCC[CH2][Sn]([Cl])([Cl])[CH2]CCC
inactive: dose: 2.5 mg/kg/injection, schedule: Q01DX009 (ip), vehicle: saline with Tween-80 100 % of control | dose: 5.0 mg/kg/injection, schedule: Q01DX009 (ip), vehicle: saline with Tween-80 95 % of control | dose: 5.0 mg/kg/injection, schedule: Q04DX003 (ip), vehicle: saline with Tween-80 104 % of control | dose: 10.0 mg/kg/injection, schedule: Q01DX009 (ip), vehicle: saline with Tween-80 95 % of control | dose: 10.0 mg/kg/injection, schedule: Q04DX003 (ip), vehicle: saline with Tween-80 101 % of control | dose: 20.0 mg/kg/injection, schedule: Q04DX003 (ip), vehicle: saline with Tween-80 119 % of control

COc1ccc(OC(=O)Nc2c(C)cccc2C)cc1
inactive: [7] 95 % of control | [8] 98 % of control | [9] 91 % of control | [10] 105 % of control | [11] 94 % of control | [12] 100 % of control

O=C(CCc1ccc(O)cc1)c1c(O)cc(O)cc1O
inactive: [17] 96 % of control | [18] 94 % of control | [19] 92 % of control

O=C(Nc1ccc(CCO)cc1)Nc1ccccc1F
inactive: [5] 97 % of control | [6] 88 % of control | [15] 111 % of control

CC1(C)N=C(N)N=C(N)N1c1ccc(CCc2ccc(S(=O)(=O)F)cc2)cc1
inactive: dose: 100.0 mg/kg/injection, schedule: Q01DX001 (ip), vehicle: saline with Tween-80 97 % of control | dose: 200.0 mg/kg/injection, schedule: Q01DX001 (ip), vehicle: saline with Tween-80 97 % of control | dose: 400.0 mg/kg/injection, schedule: Q01DX001 (ip), vehicle: saline with Tween-80 102 % of control

O=c1c(-c2ccccc2)coc2ccccc12
inactive: [8] 97 % of control | [10] 92 % of control | [12] 90 % of control

O=Nc1ccc(/C=C/C(=O)O)cc1
inactive: [16] 102 % of control | [17] 105 % of control | [18] 100 % of control | [19] 113 % of control

CCCCC(CC)C1OC(=O)C(C)O1 (stereo not drawn)
inactive: [5] 100 % of control | [21] 102 % of control | [6] 104 % of control | [22] 100 % of control | [15] 105 % of control | [23] 102 % of control

CC1(C)C2CC3C(=CCCC3(Cl)C#N)C1C2 (stereo not drawn)
inactive: [5] 98 % of control | [21] 106 % of control | [6] 102 % of control | [22] 101 % of control | [15] 93 % of control | [23] 97 % of control

CCCC(Cc1ccccc1)N1CCCC1 (stereo not drawn)
inactive: dose: 3.12 mg/kg/injection, schedule: Q01DX009 (ip), vehicle: saline 103 % of control | dose: 6.25 mg/kg/injection, schedule: Q01DX009 (ip), vehicle: saline 103 % of control | [13] 97 % of control | [14] 103 % of control | dose: 25.0 mg/kg/injection, schedule: Q04DX003 (ip), vehicle: saline 92 % of control | dose: 50.0 mg/kg/injection, schedule: Q04DX003 (ip), vehicle: saline 95 % of control

CN(CCC#N)C1=CCCCCC1
inactive: [17] 101 % of control | [18] 97 % of control

C(=C1\CC(c2ccccc2)(c2ccccc2)N=N1)/c1ccccc1
inactive: [21] 91 % of control | [22] 114 % of control | [23] 101 % of control

CCc1cccc(CC)c1NC(=O)CCl
inactive: [1] 111 % of control | [21] 108 % of control | [2] 104 % of control | [3] 90 % of control | [23] 95 % of control

CN(C)CCCN=Cc1cc([N+](=O)[O-])ccc1O.CN(C)CCCN=Cc1cc([N+](=O)[O-])ccc1O.[Ni+2]
inactive: [8] 91 % of control

NC(=S)N/N=C/c1cccnc1
inactive: [20] 92 % of control | [4] 87 % of control | dose: 50.0 mg/kg/injection, schedule: Q04DX002 (ip), vehicle: Klucel (hydroxypropylcellulose) (HPC) 98 % of control | [5] 89 % of control | [1] 95 % of control and 107 % of control | [2] 95 % of control

O=C1NC2(C=CC(Br)CC2)C(=O)C12CCCCC2 (stereo not drawn)
inactive: dose: 75.0 mg/kg/injection, schedule: Q01DX001 (ip), vehicle: saline 104 % of control | dose: 150.0 mg/kg/injection, schedule: Q01DX001 (ip), vehicle: saline 100 % of control | dose: 300.0 mg/kg/injection, schedule: Q01DX001 (ip), vehicle: saline 102 % of control

CCOC(=O)C(CCC#N)(CCC(=O)OC)C(C)=O (stereo not drawn)
inactive: dose: 100.0 mg/kg/injection, schedule: Q04DX002 (ip), vehicle: saline with Tween-80 97 % of control | dose: 200.0 mg/kg/injection, schedule: Q04DX002 (ip), vehicle: saline with Tween-80 116 % of control | dose: 400.0 mg/kg/injection, schedule: Q04DX002 (ip), vehicle: saline with Tween-80 94 % of control

COc1cccc2c1C(=O)c1c(O)c3c(c(O)c1C2=O)CC(O)(/C(C)=N/NC(=O)c1ccccc1)CC3OC1CC(N)C(O)C(C)O1 (stereo not drawn)
inactive: dose: 200.0 mg/kg/injection, schedule: Q04DX003 (ip), vehicle: water 124 % of control
